# Results as given in ChEMBL document CHEMBL5465560, “Selectivity Literature for EUbOPEN Chemogenomic Library” (2024).
# Experiments:
# [1] = target: Serine/threonine-protein kinase SBK1 (Homo sapiens) (UniProt Q52WX2); experiment: Selectivity interaction (KinomeScan (DiscoverX)) EUB0000229b SBK1; conditions: at 10 µM
# [2] = target: T1, Tyrosine-protein kinase Lyn (Homo sapiens, UniProt P07948); experiment: Selectivity interaction (KinomeScan (DiscoverX)) EUB0000045b LYN
# [3] = target: Mitogen-activated protein kinase kinase kinase 4 (Homo sapiens) (UniProt Q9Y6R4); experiment: Selectivity interaction (KinomeScan (DiscoverX)) EUB0000045b MAP3K4
# Sequence of Mitogen-activated protein kinase kinase kinase 4 (Homo sapiens) (Q9Y6R4 whole entry): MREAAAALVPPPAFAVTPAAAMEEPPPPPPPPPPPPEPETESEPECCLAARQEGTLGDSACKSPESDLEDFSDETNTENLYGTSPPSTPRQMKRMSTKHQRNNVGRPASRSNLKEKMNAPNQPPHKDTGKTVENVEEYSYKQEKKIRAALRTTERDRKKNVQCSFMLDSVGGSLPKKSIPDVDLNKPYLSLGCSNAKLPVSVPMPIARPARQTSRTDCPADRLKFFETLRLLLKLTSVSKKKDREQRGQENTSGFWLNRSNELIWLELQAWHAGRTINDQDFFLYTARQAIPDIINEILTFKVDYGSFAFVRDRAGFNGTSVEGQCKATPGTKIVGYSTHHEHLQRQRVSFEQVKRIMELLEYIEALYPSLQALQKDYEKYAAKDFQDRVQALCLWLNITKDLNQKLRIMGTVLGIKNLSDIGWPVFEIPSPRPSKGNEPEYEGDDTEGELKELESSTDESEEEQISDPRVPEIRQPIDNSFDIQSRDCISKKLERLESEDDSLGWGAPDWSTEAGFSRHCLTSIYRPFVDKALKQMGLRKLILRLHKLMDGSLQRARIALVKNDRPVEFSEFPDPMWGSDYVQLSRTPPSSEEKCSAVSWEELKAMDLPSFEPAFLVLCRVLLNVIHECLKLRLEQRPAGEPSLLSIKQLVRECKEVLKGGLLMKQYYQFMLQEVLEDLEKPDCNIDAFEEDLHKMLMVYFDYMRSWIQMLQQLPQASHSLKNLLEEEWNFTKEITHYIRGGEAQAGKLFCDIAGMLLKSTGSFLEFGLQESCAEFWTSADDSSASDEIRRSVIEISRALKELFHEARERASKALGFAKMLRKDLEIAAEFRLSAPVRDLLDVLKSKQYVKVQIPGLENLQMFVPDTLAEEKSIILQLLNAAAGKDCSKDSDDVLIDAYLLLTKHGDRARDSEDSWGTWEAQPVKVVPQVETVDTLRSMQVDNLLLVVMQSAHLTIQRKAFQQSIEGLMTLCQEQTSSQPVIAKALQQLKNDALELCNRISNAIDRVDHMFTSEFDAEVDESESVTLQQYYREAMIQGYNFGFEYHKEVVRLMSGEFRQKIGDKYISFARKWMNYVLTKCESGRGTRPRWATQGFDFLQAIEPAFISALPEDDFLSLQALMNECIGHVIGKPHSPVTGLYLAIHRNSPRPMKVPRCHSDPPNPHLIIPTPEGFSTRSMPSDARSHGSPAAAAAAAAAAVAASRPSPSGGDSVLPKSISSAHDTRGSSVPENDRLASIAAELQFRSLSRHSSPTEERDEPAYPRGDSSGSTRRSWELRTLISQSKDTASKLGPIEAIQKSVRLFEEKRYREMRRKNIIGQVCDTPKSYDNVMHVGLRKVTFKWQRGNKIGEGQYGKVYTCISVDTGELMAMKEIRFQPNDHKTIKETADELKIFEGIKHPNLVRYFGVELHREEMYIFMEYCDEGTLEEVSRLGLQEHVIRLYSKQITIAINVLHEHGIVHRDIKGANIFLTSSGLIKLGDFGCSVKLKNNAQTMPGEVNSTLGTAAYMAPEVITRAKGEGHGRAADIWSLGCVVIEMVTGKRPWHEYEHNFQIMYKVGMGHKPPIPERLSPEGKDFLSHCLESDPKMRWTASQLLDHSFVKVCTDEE
# [4] = target: Rho-associated protein kinase 2 (Homo sapiens, UniProt O75116); experiment: Selectivity interaction (KinomeScan (DiscoverX)) EUB0000695a ROCK2; conditions: at 100 nM
# [5] = target: Phosphatidylinositol 4-kinase beta (Homo sapiens, UniProt Q9UBF8); experiment: Selectivity interaction (KinomeScan (DiscoverX)) EUB0001079a PI4KB; conditions: at 1 µM
# Sequence of Phosphatidylinositol 4-kinase beta (Q9UBF8 2-816 limits assumed): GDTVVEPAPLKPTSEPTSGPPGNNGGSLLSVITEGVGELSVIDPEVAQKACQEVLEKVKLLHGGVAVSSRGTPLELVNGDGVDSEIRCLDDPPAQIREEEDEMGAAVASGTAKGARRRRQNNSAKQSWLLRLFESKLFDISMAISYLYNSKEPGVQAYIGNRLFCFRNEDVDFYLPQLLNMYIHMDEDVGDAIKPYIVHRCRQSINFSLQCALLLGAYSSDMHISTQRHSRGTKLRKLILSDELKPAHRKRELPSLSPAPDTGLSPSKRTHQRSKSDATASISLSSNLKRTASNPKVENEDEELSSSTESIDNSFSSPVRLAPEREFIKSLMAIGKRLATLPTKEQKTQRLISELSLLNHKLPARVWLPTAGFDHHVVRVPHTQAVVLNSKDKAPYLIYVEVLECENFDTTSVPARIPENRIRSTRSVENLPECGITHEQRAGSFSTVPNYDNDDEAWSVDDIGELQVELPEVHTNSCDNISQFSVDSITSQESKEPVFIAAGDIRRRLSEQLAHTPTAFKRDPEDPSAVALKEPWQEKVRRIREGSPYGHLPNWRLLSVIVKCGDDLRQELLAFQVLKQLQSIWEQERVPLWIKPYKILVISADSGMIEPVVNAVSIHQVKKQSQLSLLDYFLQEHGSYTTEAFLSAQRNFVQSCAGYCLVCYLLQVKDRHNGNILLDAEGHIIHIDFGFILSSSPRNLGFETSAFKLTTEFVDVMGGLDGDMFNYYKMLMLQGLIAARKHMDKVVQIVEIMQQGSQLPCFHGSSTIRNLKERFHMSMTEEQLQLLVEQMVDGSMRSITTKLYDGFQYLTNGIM
# [6] = target: T2, Uncharacterized serine/threonine-protein kinase SBK3 (Homo sapiens) (UniProt P0C264); experiment: Selectivity interaction (KinomeScan (DiscoverX)) EUB0001079a SBK3; conditions: at 1 µM
# T2 sequence (whole entry): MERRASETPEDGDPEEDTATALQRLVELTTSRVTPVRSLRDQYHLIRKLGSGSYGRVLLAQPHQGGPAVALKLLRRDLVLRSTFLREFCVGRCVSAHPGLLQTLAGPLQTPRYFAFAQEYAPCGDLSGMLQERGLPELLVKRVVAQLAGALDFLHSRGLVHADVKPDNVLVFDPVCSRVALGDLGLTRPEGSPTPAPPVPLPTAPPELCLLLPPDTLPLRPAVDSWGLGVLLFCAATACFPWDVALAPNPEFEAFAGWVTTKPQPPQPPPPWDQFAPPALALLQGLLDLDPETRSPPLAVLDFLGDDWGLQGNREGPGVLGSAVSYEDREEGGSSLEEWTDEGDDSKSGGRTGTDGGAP
# [7] = target: STE20/SPS1-related proline-alanine-rich protein kinase (Homo sapiens) (UniProt Q9UEW8); experiment: Selectivity interaction (KinomeScan (DiscoverX)) EUB0000666a STK39; conditions: at 10 µM
# [8] = target: Tyrosine-protein kinase CSK (Homo sapiens) (UniProt P41240); experiment: Selectivity interaction (Kinase panel (literature)) EUB0001199aCl CSK; conditions: at 1 µM
# Sequence of Tyrosine-protein kinase CSK (Homo sapiens) (P41240 2-450 limits assumed): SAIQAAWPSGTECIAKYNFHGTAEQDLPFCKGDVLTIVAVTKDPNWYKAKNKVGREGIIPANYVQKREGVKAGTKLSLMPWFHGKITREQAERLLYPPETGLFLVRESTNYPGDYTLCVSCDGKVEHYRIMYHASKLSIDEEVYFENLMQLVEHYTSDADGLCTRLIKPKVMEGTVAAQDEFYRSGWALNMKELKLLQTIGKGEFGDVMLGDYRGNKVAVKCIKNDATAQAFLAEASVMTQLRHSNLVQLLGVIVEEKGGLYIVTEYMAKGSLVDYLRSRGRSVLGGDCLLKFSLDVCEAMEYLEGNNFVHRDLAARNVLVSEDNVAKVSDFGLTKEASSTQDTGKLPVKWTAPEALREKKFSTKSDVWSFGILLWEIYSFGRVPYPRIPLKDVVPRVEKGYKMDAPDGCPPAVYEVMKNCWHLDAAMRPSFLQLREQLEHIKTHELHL
# [9] = target: Cyclin-dependent kinase 8 (Homo sapiens, UniProt P49336); experiment: Selectivity interaction (KinomeScan (DiscoverX)) EUB0000607a CDK8; conditions: at 10 µM
# Sequence of Cyclin-dependent kinase 8 (P49336 whole entry): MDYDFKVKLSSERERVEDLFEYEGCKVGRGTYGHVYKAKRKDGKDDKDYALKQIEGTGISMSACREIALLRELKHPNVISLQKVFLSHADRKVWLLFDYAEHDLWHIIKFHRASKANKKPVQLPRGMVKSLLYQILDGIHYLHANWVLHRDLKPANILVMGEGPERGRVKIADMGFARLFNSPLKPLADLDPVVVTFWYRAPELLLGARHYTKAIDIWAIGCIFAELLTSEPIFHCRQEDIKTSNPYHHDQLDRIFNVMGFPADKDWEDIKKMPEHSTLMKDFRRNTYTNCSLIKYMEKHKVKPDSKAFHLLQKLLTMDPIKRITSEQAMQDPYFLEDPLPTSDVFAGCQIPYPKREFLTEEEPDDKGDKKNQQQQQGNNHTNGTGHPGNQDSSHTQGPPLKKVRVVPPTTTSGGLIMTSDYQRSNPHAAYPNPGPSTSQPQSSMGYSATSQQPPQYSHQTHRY
# [10] = target: T3, Dual specificity tyrosine-phosphorylation-regulated kinase 3 (Homo sapiens) (UniProt O43781); experiment: Selectivity interaction (SelectScreen profiling (Invitrogen)) EUB0000607a DYRK3; conditions: at 2 µM
# T3 sequence (whole entry): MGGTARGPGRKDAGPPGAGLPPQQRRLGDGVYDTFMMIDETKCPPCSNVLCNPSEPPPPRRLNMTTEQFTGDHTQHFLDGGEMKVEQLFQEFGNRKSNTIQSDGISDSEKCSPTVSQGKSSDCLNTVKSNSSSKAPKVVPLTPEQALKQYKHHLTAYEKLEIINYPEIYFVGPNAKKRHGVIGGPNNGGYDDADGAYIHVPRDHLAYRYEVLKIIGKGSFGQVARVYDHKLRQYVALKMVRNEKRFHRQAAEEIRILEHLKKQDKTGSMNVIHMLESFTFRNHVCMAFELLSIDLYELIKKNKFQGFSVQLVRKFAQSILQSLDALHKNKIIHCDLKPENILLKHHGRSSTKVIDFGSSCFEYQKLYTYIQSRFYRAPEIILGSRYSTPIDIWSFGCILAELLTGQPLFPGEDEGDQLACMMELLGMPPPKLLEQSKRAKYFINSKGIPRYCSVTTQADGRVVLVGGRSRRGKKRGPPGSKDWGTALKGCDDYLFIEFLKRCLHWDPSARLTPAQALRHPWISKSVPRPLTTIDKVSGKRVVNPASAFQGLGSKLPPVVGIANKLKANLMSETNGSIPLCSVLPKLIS
# [11] = target: Serine/threonine-protein kinase PAK 6 (Homo sapiens) (UniProt Q9NQU5); experiment: Selectivity interaction (KinomeScan (DiscoverX)) EUB0000618a PAK6; conditions: at 10 µM
# [12] = target: Ribosomal protein S6 kinase alpha-4 (Homo sapiens) (UniProt O75676); experiment: Selectivity interaction (KinomeScan (DiscoverX)) EUB0000618a RPS6KA4; conditions: at 10 µM
# Sequence of Ribosomal protein S6 kinase alpha-4 (Homo sapiens) (O75676 whole entry, looked up): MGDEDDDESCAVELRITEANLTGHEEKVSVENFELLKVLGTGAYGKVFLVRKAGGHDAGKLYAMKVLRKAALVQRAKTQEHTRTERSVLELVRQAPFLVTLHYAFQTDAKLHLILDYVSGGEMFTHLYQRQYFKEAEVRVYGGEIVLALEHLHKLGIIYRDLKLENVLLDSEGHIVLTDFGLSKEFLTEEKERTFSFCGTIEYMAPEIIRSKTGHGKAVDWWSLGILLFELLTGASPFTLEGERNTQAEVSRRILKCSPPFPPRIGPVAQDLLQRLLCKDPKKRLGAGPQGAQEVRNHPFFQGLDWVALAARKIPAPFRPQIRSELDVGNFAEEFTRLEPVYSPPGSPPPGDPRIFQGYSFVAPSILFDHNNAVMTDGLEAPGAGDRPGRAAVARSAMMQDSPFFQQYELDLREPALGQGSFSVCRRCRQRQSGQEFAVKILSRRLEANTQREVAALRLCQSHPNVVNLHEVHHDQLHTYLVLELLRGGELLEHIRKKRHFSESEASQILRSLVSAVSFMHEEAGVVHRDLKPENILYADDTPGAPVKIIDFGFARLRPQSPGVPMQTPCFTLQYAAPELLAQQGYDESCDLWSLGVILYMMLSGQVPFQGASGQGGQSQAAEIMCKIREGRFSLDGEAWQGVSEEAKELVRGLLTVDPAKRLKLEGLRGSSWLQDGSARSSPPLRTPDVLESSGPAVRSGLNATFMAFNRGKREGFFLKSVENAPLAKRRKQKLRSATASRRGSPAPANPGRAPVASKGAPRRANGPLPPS
# [13] = target: T4, Serine/threonine-protein kinase greatwall (Homo sapiens) (UniProt Q96GX5); experiment: Selectivity interaction (ActivX KiNativ screen (kinase selectivity in THP-1 cell lysates)) EUB0000639a MASTL; type: subcellular; conditions: lysate, at 0.01 µM
# T4 sequence (whole entry): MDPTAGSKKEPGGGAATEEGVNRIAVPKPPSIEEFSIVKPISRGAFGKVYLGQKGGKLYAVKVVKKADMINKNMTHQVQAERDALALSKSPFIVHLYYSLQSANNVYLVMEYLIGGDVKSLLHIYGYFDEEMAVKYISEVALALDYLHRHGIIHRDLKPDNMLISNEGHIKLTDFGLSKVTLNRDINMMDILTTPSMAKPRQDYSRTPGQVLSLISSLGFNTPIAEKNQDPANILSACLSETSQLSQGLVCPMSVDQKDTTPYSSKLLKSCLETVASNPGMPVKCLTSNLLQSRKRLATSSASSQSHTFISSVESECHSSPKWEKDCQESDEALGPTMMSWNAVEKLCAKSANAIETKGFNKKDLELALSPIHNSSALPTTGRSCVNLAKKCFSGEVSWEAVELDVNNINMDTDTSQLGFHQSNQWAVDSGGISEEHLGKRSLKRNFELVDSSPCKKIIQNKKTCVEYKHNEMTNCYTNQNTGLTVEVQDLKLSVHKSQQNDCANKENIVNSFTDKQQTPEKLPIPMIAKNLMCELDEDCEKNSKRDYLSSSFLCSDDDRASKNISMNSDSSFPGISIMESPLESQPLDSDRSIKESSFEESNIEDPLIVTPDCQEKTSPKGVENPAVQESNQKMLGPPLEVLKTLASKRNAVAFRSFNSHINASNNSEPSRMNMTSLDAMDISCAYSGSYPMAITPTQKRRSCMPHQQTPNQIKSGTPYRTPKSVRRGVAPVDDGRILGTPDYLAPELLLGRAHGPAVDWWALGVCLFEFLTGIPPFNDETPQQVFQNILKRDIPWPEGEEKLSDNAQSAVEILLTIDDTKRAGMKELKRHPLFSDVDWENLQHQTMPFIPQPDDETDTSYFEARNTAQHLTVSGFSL
# [14] = target: Serine/threonine-protein kinase 38-like (Homo sapiens) (UniProt Q9Y2H1); experiment: Selectivity interaction (ActivX KiNativ screen (kinase selectivity in THP-1 cell lysates)) EUB0000639a STK38L; type: subcellular; conditions: lysate, at 0.2 µM
# [15] = target: T1, Tyrosine-protein kinase Lyn; experiment: Selectivity interaction (Ambit KINOMEscan and KiNATiv profiling in Jurkat cells) EUB0000090b LYN; type: cell-based; conditions: at 1 µM
# [16] = target: Mitogen-activated protein kinase kinase kinase 9 (Homo sapiens) (UniProt P80192); experiment: Selectivity interaction (Ambit KINOMEscan and KiNATiv profiling in Jurkat cells) EUB0000090b MAP3K9; type: cell-based; conditions: at 1 µM
# T1 sequence (P07948 2-512 limits assumed): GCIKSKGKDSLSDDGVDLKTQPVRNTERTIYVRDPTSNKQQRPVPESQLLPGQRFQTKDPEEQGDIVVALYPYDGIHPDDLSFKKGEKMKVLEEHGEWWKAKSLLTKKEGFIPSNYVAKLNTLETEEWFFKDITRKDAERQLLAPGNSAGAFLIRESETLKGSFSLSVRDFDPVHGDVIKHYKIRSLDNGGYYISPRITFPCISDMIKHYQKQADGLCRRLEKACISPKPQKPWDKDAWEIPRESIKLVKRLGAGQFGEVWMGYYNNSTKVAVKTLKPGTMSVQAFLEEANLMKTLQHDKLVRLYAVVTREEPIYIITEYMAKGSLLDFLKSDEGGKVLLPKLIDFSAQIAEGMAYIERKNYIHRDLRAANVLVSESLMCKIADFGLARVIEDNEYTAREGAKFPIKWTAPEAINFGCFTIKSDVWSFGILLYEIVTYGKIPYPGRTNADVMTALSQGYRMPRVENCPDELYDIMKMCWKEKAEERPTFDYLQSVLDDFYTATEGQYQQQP
# Sequence of Serine/threonine-protein kinase SBK1 (Homo sapiens) (Q52WX2 whole entry): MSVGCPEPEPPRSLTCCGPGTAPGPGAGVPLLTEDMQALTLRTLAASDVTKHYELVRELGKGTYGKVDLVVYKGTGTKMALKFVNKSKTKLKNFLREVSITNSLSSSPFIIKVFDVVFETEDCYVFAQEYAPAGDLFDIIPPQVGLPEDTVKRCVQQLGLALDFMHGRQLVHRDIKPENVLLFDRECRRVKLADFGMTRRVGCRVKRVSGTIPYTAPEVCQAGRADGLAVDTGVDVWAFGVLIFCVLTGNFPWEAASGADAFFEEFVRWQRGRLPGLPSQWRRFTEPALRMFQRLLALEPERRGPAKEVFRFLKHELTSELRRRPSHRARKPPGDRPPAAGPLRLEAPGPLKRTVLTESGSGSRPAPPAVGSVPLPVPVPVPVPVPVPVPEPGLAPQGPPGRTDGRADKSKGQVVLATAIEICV
smiles,measurement,setting,value
COc1cc(N(C)c2ccnc3ccc(C(F)(F)F)cc23)cc(OC)c1OC,% binding,[1],92%
C=CC(=O)Nc1cc(-n2c(=O)ccc3cnc4ccc(-c5ccc(NS(C)(=O)=O)cc5)cc4c32)ccc1C,% of control,[2]; at 1 µM,92%
same,% of control,[2]; at 10 µM,91%
same,% of control,[3]; at 1 µM,89%
same,% of control,[3]; at 10 µM,100%
Cc1cc(F)c(C(=O)Nc2cccc(-c3nncn3C(C)C)n2)cc1-n1cnc(C2CC2)c1,% of control,[4],81%
Nc1cnc(N2CCc3cc(S(=O)(=O)Nc4c(F)cc(Cl)cc4F)cc(N4CCCC4=O)c32)nc1 [TP-020n],% of control,[5],93%
same,% of control,[6],100%
O=C(NOC[C@H](O)CO)c1ccc(F)c(F)c1Nc1ccc(I)cc1F,% of control,[7],96%
CN1Cc2nccc(-c3cn(C)nc3-c3ccc(F)cc3)c2C1=O,% of inhibition,[8],-3%
CNC(=O)Nc1ccc(-c2nc(N3CC4CCC(C3)O4)c3cnn(C4CCC5(CC4)OCCO5)c3n2)cc1,% of control,[9],100%
same,% of inhibition,[10],-1%
O[C@H]1CC[C@H](Nc2ncc3nc(Nc4c(F)cc(F)cc4F)n([C@H]4CCOC4)c3n2)CC1,% of control,[11],100%
same,% of control,[12],100%
CC[C@@H]1[C@H](F)C(=O)N[C@@H]1COc1nccc2cc(C(N)=O)c(OC)cc12 [ZIMLOVISERTIB],% of inhibition,[13],16.1%
same,% of inhibition,[14],18.4%
CN(C)C/C=C/C(=O)Nc1ccc(C(=O)N2CCCC(Nc3ncc(Cl)c(-c4c[nH]c5ccccc45)n3)C2)cc1 (stereo not drawn),% of control,[15],100%
same,% of control,[16],100%
